{
  "source": "patent US20260199443A1",
  "about": "“HISTONE DEACYTLASE 6 MODULATION OF TITIN PROTEIN MEDIATED CARDIAC TISSUE STIFFNESS AND METHOD FOR SAME” (The Regents of the University of Colorado, a Body Corporate, priority 2019, published 2026)",
  "key": {"[1]": {"system": "diastolic dysfunction in murine models", "conditions": "murine models of hypertension and aging, reference (21); cited from earlier work"}, "[2]": {"system": "adult rat ventricular myocytes (ARVMs)", "assay": "Myofibril resting tension after 24 hour treatment of cultured ARVMs", "assay_type": "cell-based", "conditions": "myofibrils isolated from ARVMs treated for 24 hours"}, "[3]": {"system": "myofibrils from non-failing human LVs", "assay": "Ex vivo treatment of human myofibrils with recombinant PKCα, with or without subsequent recombinant HDAC6, then myofibril mechanics", "experimental": "(§1) Myofibril mechanics were quantified using the fast solution switching technique (47). Frozen LV sections were skinned in 0.5% Triton-X in rigor solution (132 mM NaCl, 5 mM KCl, 1 mM MgCl2, 10 mM Tris, 5 mM EGTA, pH 7.1) containing protease inhibitors (10 μm leupeptin, 5 μm pepstatin, 200 μm PMSF and 10 μm E64), as well as 500 μm NaN3 and 500 μm DTT at 4° C. overnight. Skinned LVs were washed in fresh rigor solution and homogenized (Tissue-Tearor, Thomas Scientific) in relaxing solution (pCa 9.0) containing protease inhibitors. Myofibril suspensions were transferred to a temperature controlled chamber (15° C.) containing relaxing solution (pCa 9.0; 100 mM Na2EGTA; 1 M potassium propionate; 100 mM Na2SO4; 1 M MOPS; 1 M MgCl2; 6.7 mM ATP; and 1 mM creatine phosphate; pH 7.0). Myofibril bundles were mounted between two micro-tools. One tool was connected to a motor that could produce rapid length changes (Mad City Labs). The second tool was a calibrated cantilevered force probe (7-10 μm/μN; frequency response 2-5 KHz). Myofibrils were set 5-10% above slack myofibril length. Average sarcomere lengths and myofibril diameters were measured using ImageJ software. Mounted myofibrils were activated and relaxed by rapidly translating the interface between two flowing streams of solutions of different pCa. Data were collected and analyzed using customized Lab View software. Measured mechanical and kinetic parameters were defined as follows: resting tension (mN/mm^2)=myofibril basal tension in fully relaxing condition; maximal tension (mN/mm^2)=maximal tension generated at full calcium activation (pCa 4.5); the rate constant of tension development following maximal calcium activation=kACT; and relaxation parameters were defined as: duration of the linear relaxation=linear duration, and the rate constant of exponential relaxation=fast kREL. For, myofibril resting tension-to-sarcomere length curves, each myofibril was stretched incrementally to determine the resting tension at different sarcomere lengths, and a resting tension-sarcomere length relationship was measured. […]"}, "[4]": {"system": "WT mouse left ventricle myofibrils (titin)", "assay": "Ex vivo treatment of WT mouse LV myofibrils with recombinant HDAC6, then myofibril mechanics", "conditions": "30 minutes, listed as rHDAC6", "experimental": "as §1, with “Myofibril suspensions were transferred to a temperature controlled chamber (15° C.) containing relaxing solution (pCa 9.0; 100 mM Na2EGTA; 1 M potassium propionate; 100 mM Na2SO4; 1 M MOPS; 1 M MgCl2; 6.7 mM ATP; and 1 mM creatine phosphate; pH 7.0). Myofibril bundles were mounted between two micro-tools. One tool was connected to a motor that could produce rapid length changes (Mad City Labs). The second tool was a calibrated cantilevered force probe (7-10 μm/μN; frequency response 2-5 KHz). Myofibrils were set 5-10% above slack myofibril length.” left out, “Mounted myofibrils were activated and relaxed by rapidly translating the interface between two flowing streams of solutions of different pCa.” left out"}, "[5]": {"system": "myofibrils from mice lacking the PEVK region of titin", "assay": "Ex vivo treatment of PEVK KO mouse LV myofibrils with recombinant HDAC6, then myofibril mechanics", "conditions": "30 minutes", "experimental": "as §1, with “Myofibril suspensions were transferred to a temperature controlled chamber (15° C.) containing relaxing solution (pCa 9.0; 100 mM Na2EGTA; 1 M potassium propionate; 100 mM Na2SO4; 1 M MOPS; 1 M MgCl2; 6.7 mM ATP; and 1 mM creatine phosphate; pH 7.0). Myofibril bundles were mounted between two micro-tools. One tool was connected to a motor that could produce rapid length changes (Mad City Labs). The second tool was a calibrated cantilevered force probe (7-10 μm/μN; frequency response 2-5 KHz). Myofibrils were set 5-10% above slack myofibril length.” left out, “Mounted myofibrils were activated and relaxed by rapidly translating the interface between two flowing streams of solutions of different pCa.” left out"}, "[6]": {"system": "PKC-driven phosphorylation of sacromeric proteins", "assay": "Immunoblot with anti-PKC substrate antibody of treated human myofibril proteins", "assay_type": "biochemical", "conditions": "human myofibrils, PKCα followed by HDAC6", "experimental": "FIG. 3E is an immunoblot performed with an anti-PKC substrate antibody and solubilized proteins from myofibrils treated as indicated in the protocol illustrated in FIG. 3B.\nElevated PEVK phosphorylation is s associated with increased cardiomyocyte passive stiffness in pre-clinical models and in human heart failure (7). To begin to address the therapeutic potential of HDAC6 gain-of-function, an ex vivo experiment was performed to determine whether HDAC6 is capable of overriding the cardiac stiffening effect of PKC. Myofibrils obtained from non-failing human LVs were pretreated with recombinant PKCα, washed, and then incubated with recombinant HDAC6 (FIG. 3B)."}, "[7]": {"system": "human myofibrils from non-failing donor left ventricle (titin)", "assay": "Ex vivo treatment of human LV myofibrils with recombinant HDAC6, then myofibril mechanics", "experimental": "as §1, with “Myofibril suspensions were transferred to a temperature controlled chamber (15° C.) containing relaxing solution (pCa 9.0; 100 mM Na2EGTA; 1 M potassium propionate; 100 mM Na2SO4; 1 M MOPS; 1 M MgCl2; 6.7 mM ATP; and 1 mM creatine phosphate; pH 7.0). Myofibril bundles were mounted between two micro-tools. One tool was connected to a motor that could produce rapid length changes (Mad City Labs). The second tool was a calibrated cantilevered force probe (7-10 μm/μN; frequency response 2-5 KHz). Myofibrils were set 5-10% above slack myofibril length.” left out, “Mounted myofibrils were activated and relaxed by rapidly translating the interface between two flowing streams of solutions of different pCa.” left out"}, "[8]": {"system": "rat myofibrils (titin)", "assay": "Ex vivo incubation of purified rat myofibrils with recombinant enzyme, then myofibril mechanics", "conditions": "30 minutes", "experimental": "as §1, with “Myofibril suspensions were transferred to a temperature controlled chamber (15° C.) containing relaxing solution (pCa 9.0; 100 mM Na2EGTA; 1 M potassium propionate; 100 mM Na2SO4; 1 M MOPS; 1 M MgCl2; 6.7 mM ATP; and 1 mM creatine phosphate; pH 7.0). Myofibril bundles were mounted between two micro-tools. One tool was connected to a motor that could produce rapid length changes (Mad City Labs). The second tool was a calibrated cantilevered force probe (7-10 μm/μN; frequency response 2-5 KHz). Myofibrils were set 5-10% above slack myofibril length.” left out, “Mounted myofibrils were activated and relaxed by rapidly translating the interface between two flowing streams of solutions of different pCa.” left out"}, "[9]": {"target": "T1, HDAC6 (Rattus norvegicus, UniProt A0A8I6GM68)", "T1 construct": "endogenous in cells; host or cells: adult rat ventricular myocytes (ARVMs) from Sprague Dawley rats", "T1 sequence (A0A8I6GM68 whole entry)": "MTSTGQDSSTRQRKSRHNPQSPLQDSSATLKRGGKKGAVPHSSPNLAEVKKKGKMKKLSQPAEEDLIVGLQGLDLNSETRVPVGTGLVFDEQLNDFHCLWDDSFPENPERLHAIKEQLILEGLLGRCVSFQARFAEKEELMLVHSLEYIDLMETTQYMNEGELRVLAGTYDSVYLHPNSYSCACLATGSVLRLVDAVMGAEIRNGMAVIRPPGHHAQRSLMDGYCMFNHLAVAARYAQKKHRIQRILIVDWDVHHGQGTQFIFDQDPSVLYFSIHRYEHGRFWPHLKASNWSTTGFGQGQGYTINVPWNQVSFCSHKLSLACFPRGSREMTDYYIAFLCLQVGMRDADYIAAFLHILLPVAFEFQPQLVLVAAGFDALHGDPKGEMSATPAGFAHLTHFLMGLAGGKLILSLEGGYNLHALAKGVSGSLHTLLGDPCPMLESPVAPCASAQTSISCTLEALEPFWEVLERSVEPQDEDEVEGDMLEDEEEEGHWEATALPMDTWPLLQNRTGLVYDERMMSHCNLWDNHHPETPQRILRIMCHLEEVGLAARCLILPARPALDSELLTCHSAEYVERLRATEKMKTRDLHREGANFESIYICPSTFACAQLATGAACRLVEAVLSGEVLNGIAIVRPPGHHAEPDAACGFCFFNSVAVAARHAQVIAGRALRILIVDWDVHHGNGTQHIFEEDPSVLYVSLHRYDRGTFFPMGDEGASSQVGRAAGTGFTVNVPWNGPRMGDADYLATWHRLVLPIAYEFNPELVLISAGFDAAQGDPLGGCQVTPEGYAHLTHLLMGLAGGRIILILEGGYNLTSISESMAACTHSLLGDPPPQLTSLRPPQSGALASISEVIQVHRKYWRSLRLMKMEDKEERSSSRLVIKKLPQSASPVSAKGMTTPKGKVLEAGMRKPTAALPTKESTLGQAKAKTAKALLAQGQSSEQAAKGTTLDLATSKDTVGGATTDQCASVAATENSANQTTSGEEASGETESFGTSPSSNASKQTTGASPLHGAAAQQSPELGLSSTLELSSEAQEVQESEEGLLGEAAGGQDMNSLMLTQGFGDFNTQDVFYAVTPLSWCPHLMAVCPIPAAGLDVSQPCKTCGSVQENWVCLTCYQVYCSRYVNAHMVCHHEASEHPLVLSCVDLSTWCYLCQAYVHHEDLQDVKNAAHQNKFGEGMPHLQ", "assay": "Tubulin acetylation in treated ARVMs as a marker of HDAC6 inhibition (immunofluorescence, immunoblot)", "assay_type": "cell-based", "conditions": "ARVMs treated for 24 hours", "excerpt": "FIG. 1K are images of immunoblot analysis of acetyl-tubulin and total tubulin in whole-cell homogenates from treated ARVMs."}},
  "note": "“Also recorded” adds a separate entry of the source. Read-outs that look alike come from different tables or passages of the source.",
  "data": [
    {"compound": "CCN(CC)Cc1ccc2cc(COC(=O)Nc3ccc(C(=O)NO)cc3)ccc2c1", "note": "[givinostat, [6-(diethylaminomethyl)naphthalen-2-yl] methyl N-[4-(hydroxycarbamoyl)phenyl] carbamate]", "values": [
      {"measurement": "diastolic dysfunction", "setting": "[1]", "result": "ameliorates rather than exacerbates diastolic dysfunction"},
      {"measurement": "myofibril resting tension / myofibril stiffness", "setting": "[2]", "result": "no effect"}
    ]},
    {"compound": "PKCα: recombinant PKCα (0.066 U/μL, Millipore 14-484) with lipid activator", "values": [
      {"measurement": "myofibril resting tension at physiologic sarcomere length", "setting": "[3]; human myofibrils treated with recombinant PKCα alone", "result": "dramatically increased"}
    ]},
    {"compound": "recombinant HDAC6: recombinant HDAC6 (1 μg/μL, BPS Bioscience) used for ex vivo treatment of myofibrils", "values": [
      {"measurement": "myofibril compliance", "setting": "[4]", "result": "increased compliance"},
      {"measurement": "response of myofibril stiffness to HDAC6", "setting": "[5]", "result": "completely resistant"},
      {"measurement": "PKC-driven phosphorylation of sacromeric proteins", "setting": "[6]", "result": "without affecting"},
      {"measurement": "myofibril compliance / cardiomyocyte passive stiffness", "setting": "[7]", "result": "increases myofibril compliance"},
      {"measurement": "myofibril compliance / cardiomyocyte passive stiffness", "setting": "[7]; listed as rHDAC6", "result": "conserved ability of this deacetylase to control cardiomyocyte passive stiffness"},
      {"measurement": "PKC-induced leftward shift in the sarcomere length-to-resting tension curve", "setting": "[3]; human myofibrils pretreated with recombinant PKCα, then recombinant HDAC6", "result": "largely blocked"},
      {"measurement": "PKCα-induced stiffening (resting tension at physiologic sarcomere length)", "setting": "[3]; human myofibrils pretreated with recombinant PKCα, washed, then incubated with recombinant HDAC6", "result": "completely normalized"},
      {"measurement": "titin stiffness / myofibril compliance", "setting": "[8]", "result": "reduced titin stiffness; also recorded: increases myofibril compliance"}
    ]},
    {"compound": "HDAC2: recombinant HDAC2 used as control in the ex vivo myofibril assay", "values": [
      {"measurement": "titin stiffness / myofibril compliance", "setting": "[8]", "result": "not"}
    ]},
    {"compound": "CN1CCc2c(c3ccccc3n2Cc2ccc(C(=O)NO)cc2)C1", "note": "[tubastatin A]", "values": [
      {"measurement": "tubulin acetylation as a marker of HDAC6 inhibition", "setting": "[9]", "result": "inhibited HDAC6 equivalently"},
      {"measurement": "myofibril resting tension / myofibril stiffness", "setting": "[2]", "result": "elevated resting tension; also recorded: dramatically increased resting tension"}
    ]}
  ]
}
